As usually defined, the IC50 is the concentration that inhibits the measured activity by half.

IC50 data for 7 compounds are collected here from patent publication US9416143B2, “Griseofulvin derivatives” (PIERRE FABRE MEDICAMENT, priority 2012, dated 2016).

Common to all, as to format: cell-based
Assay [1] deals with MDA-MB-231 line (mammary adenocarcinoma cell line). Put plainly: Cell proliferation (ATPLite) on MDA-MB-231 line. Conditions: read 72 hours after addition. The procedure:
(§1) The lines N1E115 (ATCC, CRL2263), MDA-MB-231 (ATCC, HTB26) and HSC-1 (Health Science Research Resources Bank, JCRB1015) were cultured in DMEM medium (Dulbecco's Modified Eagle Medium) supplemented with 2 mM of L-Glutamine (Sigma, G7513) and 10% foetal calf serum (Hyclone, SH30109.03) or 20% for the HSC-1 cells. The HCC-1937 (ATCC, CRL2336) and A549 (ATCC, CCL185) lines were cultured in RPMI medium (Roswell Park Memorial Institute Medium) supplemented with 10% foetal calf serum and 2 mM of L-Glutamine. Finally, the SCC114 (DSMZ, ACC662) line was cultured in MEM medium (Minimum Essential Medium Eagle) supplemented with 10% foetal calf serum and 2 mM of L-Glutamine. Initially, in 96-well plates (Perkin Elmer, 6005668), the cells were seeded in their respective culture media with 750 cells per well for N1E115; 1000 cells per well for SCC114 and A549; 2000 cells per well for HCC-1937 and HSC-1; 2500 cells per well for MDA-MB-231. Cascade dilution of each compound was performed in dimethylsulfoxide (DMSO) (Sigma, D8418) from 10 mM stock solutions in 100% DMSO. Each of the dilutions was added to the cells 24 hours after seeding. Under these conditions the final solvent concentration was 0.1% DMSO. Reading of cell proliferation was conducted 72 hours after addition of products with the ATPLite kit (Perkin Elmer, 6016947) and following the manufacturer's directions except in the case of the HCC-1937 line for which this reading was carried out 48 hours after treatment. Analysis of proliferation results was performed by comparing with conditions in which solely the vehicle was added to the cells. The dose-response curves obtained were analysed using Prism 4.03 software (GraphPad Software Inc.) to determine the concentration of each compound allowing 50% inhibition of cell proliferation (IC50).
(§2) As examples, the cytotoxic properties of some compounds of the invention evaluated on the lines A549 (lung cancer cell line), MDA-MB-231 line (mammary adenocarcinoma cell line), N1E115 (mouse brain neuroblastoma cell line), HCC-1937 line (primary ductam breast carcinoma cell line), HSC-1 (cutaneous squamous carcinoma cell line) and SCC114 line (oral squamous carcinoma cell line) are reported in Table 1, as compared with griseofulvin used as control product. The concentration values are expressed in micromolar units (μM).
On the technique in general: In ATP-based viability assays light output follows the ATP content of the culture.

Assay [2] deals with SCC114 line (oral squamous carcinoma cell line). Put plainly: Cell proliferation (ATPLite) on SCC114 line. Conditions: read 72 hours after addition. The procedure: as §1, §2
The test system of assay [3] is A549 (lung cancer cell line). Kind of assay: Cell proliferation (ATPLite) on A549 line. Conditions: read 72 hours after addition. The protocol: as §1, §2
The subject of assay [4] is HCC-1937 line (primary ductam breast carcinoma cell line). Kind of assay: Cell proliferation (ATPLite) on HCC-1937 line. Conditions: read 48 hours after treatment. The procedure:
as §1, §2

Assay [5] relates to HSC-1 (cutaneous squamous carcinoma cell line). Kind of assay: Cell proliferation (ATPLite) on HSC-1 line. Conditions: 50% inhibition of cell proliferation, read 72 hours after addition. The procedure:
as §1, §2

Setting [6] is: 50% inhibition of cell proliferation.
The mark [7] stands for this setting: 50% inhibition of cell proliferation, read-out: IC50 (μM) HCC1937.
Where [8] appears, read: Homo sapiens, MDA-MB-231, 50% inhibition of cell proliferation.
The mark [9] stands for this setting: SCC114, 50% inhibition of cell proliferation.
Where [10] appears, read: Homo sapiens, HCC1937, 50% inhibition of cell proliferation.

Read-outs that look alike come from different tables or passages of the source. Where only a bound is given, the exact number is not on record here.

As for `COc1cc(OC)c2c(c1Cl)O[C@]1(C2=O)C2=C(C[C@](CCCCO)(c3ccccc3)O2)C(=O)C[C@H]1C` [compound 14, (2 S,2′S,6R)-7′-chloro-2-(4-hydroxybutyl)-4′,6′-dimethoxy-6-methyl-2-phenyl-5,6-dihydro-2H,3′H-2,7′-spirobi[benzofuran]-3′,4(3H)-dione], the IC50 in assay [1] (setting [6]) was 0.46 µM; in assay [2] (setting [6]), 0.74 µM; in assay [3] (setting [6]), 0.44 µM; in assay [4] (setting [7]), > 10 µM; in assay [5], 0.86 µM.

`COc1cc(OC)c2c(c1Cl)O[C@]1(C2=O)C2=C(C[C@H](c3ccc(F)cc3)O2)C(=O)C[C@H]1C` [compound 34, (2R,2′S,6R)-7′-chloro-2-(4-fluorophenyl)-4′,6′-dimethoxy-6-methyl-5,6-dihydro-2H,3′H-2,7′-spirobi[benzofuran]-3′,4(3H)-dione]: the IC50 was 0.18 µM in assay [1] (setting [6]); 0.21 µM in assay [2] (setting [6]); 0.072 µM in assay [3] (setting [6]); > 10 µM in assay [4] (setting [7]); 0.45 µM in assay [5].

As to `COC(=O)c1cc(-c2ccc(F)cc2)c2c(n1)C[C@@H](C)[C@]1(Oc3c(Cl)c(OC)cc(OC)c3C1=O)C2=O` [compound 164, (2S,7′R)-methyl 7-chloro-4′-(4-fluorophenyl)-4,6-dimethoxy-7′-methyl-3,5′-dioxo-7′,8′-dihydro-3H,5′H-spiro[benzofuran-2,6′-quinoline]-2′-carboxylate], the IC50 in assay [1] (setting [8]) was 1.4 µM; in assay [2] (setting [9]) it was 0.43 µM; in assay [3] (Homo sapiens, A549, 50% inhibition of cell proliferation), 0.45 µM; in assay [4] (setting [10]) it was > 10 µM; in assay [5], > 10 µM.

`COc1cc(OC)c2c(c1Cl)O[C@]1(C2=O)C(N(C)CCN(C)c2ccccn2)=CC(=O)C[C@H]1C` [compound 205, (1′S,6′R)-7-chloro-4,6-dimethoxy-6′-methyl-2′-(methyl(2-(methyl(pyridin-2-yl)amino)ethyl)amino)-3H-spiro[benzofuran-2,1′-cyclohex[2]ene]-3,4′-dione]: the IC50 in assay [2] (setting [6]) is 0.62 µM; in assay [3] (setting [6]), 9.2 µM; in assay [5], > 10 µM.

Turning to `COC(=O)c1cc(-c2ccsc2)c2c(n1)C[C@@H](C)[C@]1(Oc3c(Cl)c(OC)cc(OC)c3C1=O)C2O` (stereo partly drawn) [compound 255, (2S,7′R)-methyl 7-chloro-5′-hydroxy-4,6-dimethoxy-7′-methyl-3-oxo-4′-(thiophen-3-yl)-7′,8′-dihydro-3H,5′H-spiro[benzofuran-2,6′-quinoline]-2′-carboxylate], the IC50 in assay [1] (setting [8]) was 0.22 µM; in assay [2] (setting [9]) it was 0.38 µM; in assay [4] (setting [10]), > 10 µM; in assay [5] it was 0.77 µM.

Turning to `COC(=O)c1cc(-c2ccc(F)cc2)c2c(n1)C[C@@H](C)[C@]1(Oc3c(Cl)c(OC)cc(OC)c3C1=O)C2O` (stereo partly drawn) [compound 256, (2S,7′R)-methyl 7-chloro-4′-(4-fluorophenyl)-5′-hydroxy-4,6-dimethoxy-7′-methyl-3-oxo-7′,8′-dihydro-3H,5′H-spiro[benzofuran-2,6′-quinoline]-2′-carboxylate], the IC50 was 0.33 µM in assay [1] (setting [8]), 0.51 µM in assay [2] (setting [9]), > 10 µM in assay [4] (setting [10]) and 0.84 µM in assay [5].

For `COc1cc(OC)c2c(c1Cl)O[C@]1(C2=O)C(O)c2c(-c3ccccc3)cc(C(=O)OC(C)C)nc2C[C@H]1C` (stereo partly drawn) [compound 257, (2S,7′R)-isopropyl 7-chloro-5′-hydroxy-4,6-dimethoxy-7′-methyl-3-oxo-4′-phenyl-7′,8′-dihydro-3H,5′H-spiro[benzofuran-2,6′-quinoline]-2′-carboxylate], the IC50 in assay [1] (setting [8]) is 0.43 µM; in assay [2] (setting [9]), 0.51 µM; in assay [4] (setting [10]), > 10 µM; in assay [5], 2.4 µM.
